Measurements reported in the supplement of paper PMC3937590.

How the values were obtained:
Assay in all cases: -log10 GI50 (growth inhibition 50%) (-log10(M)); higher = more potent growth inhibition
HCC1419 = tested on: HCC1419
Summary of the method: (§1)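 A value carrying a < qualifier equals the top dose tested. Each compound was tested in triplicate on breast cancer cell lines for 72 hours at nine doses in 1:5 serial dilution, using a luminescence read-out against a time-zero plate. Nonlinear least squares fitting of a Gompertz curve gave GI50, the molar concentration causing the set level of growth inhibition, which is reported as its negative logarithm. The logarithm is base 10.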

600MPE = tested on: 600MPE
Summary of the method: as §1

HCC1954 = tested on: HCC1954
Summary of the method: as §1

MDAMB231 = tested on: MDAMB231
Summary of the method: as §1

MDAMB361 = tested on: MDAMB361
Summary of the method: as §1

HCC38 = tested on: HCC38
Summary of the method: as §1

MDAMB175VII = tested on: MDAMB175VII
Summary of the method: as §1

MCF12A = tested on: MCF12A
Summary of the method: as §1

SUM159PT = tested on: SUM159PT
Summary of the method: as §1

ZR75B = tested on: ZR75B
Summary of the method: as §1

BT549 = tested on: BT549
Summary of the method: as §1

AU565 = tested on: AU565
Summary of the method: as §1

BT474 = tested on: BT474
Summary of the method: as §1

MDAMB415 = tested on: MDAMB415
Summary of the method: as §1

MCF7 = tested on: MCF7
Summary of the method: as §1

HCC2185 = tested on: HCC2185
Summary of the method: as §1

HCC1428 = tested on: HCC1428
Summary of the method: as §1

HCC1143 = tested on: HCC1143
Summary of the method: as §1

MDAMB453 = tested on: MDAMB453
Summary of the method: as §1

184A1 = tested on: 184A1
Summary of the method: as §1

Structure (SMILES) | -log10 GI50 (HCC1419) | -log10 GI50 (600MPE) | -log10 GI50 (HCC1954) | -log10 GI50 (MDAMB231) | -log10 GI50 (MDAMB361) | -log10 GI50 (HCC38) | -log10 GI50 (MDAMB175VII) | -log10 GI50 (MCF12A) | -log10 GI50 (SUM159PT) | -log10 GI50 (ZR75B) | -log10 GI50 (BT549) | -log10 GI50 (AU565) | -log10 GI50 (BT474) | -log10 GI50 (MDAMB415) | -log10 GI50 (MCF7) | -log10 GI50 (HCC2185) | -log10 GI50 (HCC1428) | -log10 GI50 (HCC1143) | -log10 GI50 (MDAMB453) | -log10 GI50 (184A1)
CC(=O)NCC(=O)N1[C@@H]2CC[C@H]1c1ccc(Nc3ncc(C(F)(F)F)c(NC4CCC4)n3)cc12 | 5.19 | 6.03 | 5.16 | 5.53 | 5.23 | 6.2 | 5.63 | 5.59 | 6.37 | 5.94 | 5.47 | 5.57 | 5.22 | 5.18 | 5.71 | 4.98 | 5.37 | 5.82 | 5.62 | 5.66
CC(=O)Nc1cccc(-n2c(=O)n(C3CC3)c(=O)c3c(Nc4ccc(I)cc4F)n(C)c(=O)c(C)c32)c1 | 7.23 | 8.17 | 6.79 | 6.86 | < 4.78 | < 4.78 | 7.88 | 8.68 | 7.93 | < 4.78 | 5.55 | 5.01 | < 4.78 | 6.19 | < 4.78 | < 4.78 | < 4.78 | < 4.78 | 6.64 | 8.67
CCC[C@H](N[C@H]1CCc2cc(F)cc(F)c2C1)C(=O)Nc1cn(C(C)(C)CNCC(C)(C)C)cn1 | < 4.18 | < 4.18 | 4.84 | < 4.18 | 4.41 | < 4.18 | 5.24 | < 4.18 | < 4.18 | < 4.18 | < 4.18 | 4.98 | 4.37 | 4.9 | 4.49 | 4.99 | 4.45 | < 4.18 | 4.59 | 5.87
CNC(=O)c1c(F)cccc1Nc1nc(Nc2cc3c(cc2OC)CCN3C(=O)CN(C)C)nc2[nH]ccc12 | 5.19 | 6.49 | 5.06 | 5.32 | 4.84 | 5 | 5.29 | 5.74 | 5.47 | 5.01 | 5.21 | 5.63 | 5.08 | 5.32 | 6 | 5.39 | 5.79 | 5.56 | 4.96 | 6.4
COc1ccc(-c2cc3c(C)nc(N)nc3n([C@H]3CC[C@H](OCCO)CC3)c2=O)cn1 | 7.58 | 7.32 | 6.88 | 6.35 | 7.36 | 6.51 | 7.23 | 6.39 | 6.73 | 7.28 | 6.38 | 7.51 | 6.91 | 7.08 | 7.39 | 7.12 | 6.51 | 6.86 | 6.88 | 6.96
COc1cccc(-c2cc(=O)c3ccccc3o2)c1N | < 4 | < 4.3 | < 4.3 | < 4.3 | 4.3 | 4.29 | 4.85 | < 4.3 | 4.03 | 4.59 | 4.36 | 5.12 | 4.58 | 4.6 | < 4.3 | 5.06 | < 4 | < 4 | < 4.3 | < 4.3
COc1ncc(-c2ccc3nccc(-c4ccnnc4)c3c2)cc1NS(=O)(=O)c1ccc(F)cc1F | 9.48 | 8.22 | 8.04 | 6.37 | 8.82 | 7.61 | 8.73 | 8.09 | 7.63 | 8.31 | 7.32 | 8.1 | 8.36 | 5.86 | 8.14 | 8.04 | 7.57 | 7.43 | 8.33 | 8.77
C[C@@H](Oc1cc(-c2cnn(C3CCNCC3)c2)cnc1N)c1c(Cl)ccc(F)c1Cl | 4.73 | 6.21 | 5.45 | 5.47 | 5.44 | 5.63 | 5.23 | 5.38 | 5.79 | 5.64 | 5.44 | 5.55 | 5.11 | 5.69 | 5.91 | 5.18 | 5.13 | 5.7 | 5.59 | 5.78
O=C(O)c1ccc(-c2c[nH]c3ncc(-c4ccccc4)cc23)cc1C1CCCC1 | < 4.18 | < 4.18 | < 4.48 | < 4.18 | < 4.18 | < 4.48 | < 4.18 | 5.13 | < 4.48 | < 4.18 | < 4.48 | < 4.48 | < 4.18 | < 4.48 | < 4.48 | < 4.18 | < 4.18 | < 4.18 | < 4.18 | 5.95
O=C1C(Cl)=C(NCCN2CCOCC2)C(=O)c2ncccc21 | 5.72 | 5.34 | 5.22 | 5.14 | 5.27 | 5.64 | 5.3 | 5.76 | 5.76 | 5.26 | 5.8 | 5.81 | 5.56 | 5.59 | 5.43 | 5.97 | 5.44 | 5.7 | 5.26 | 5.82
O=C1NC(=O)/C(=C/c2ccc3nccc(-c4ccncc4)c3c2)S1 | 6.59 | 6.31 | 6.68 | 5.21 | 5.92 | 6.11 | 6.33 | 6.38 | 6.72 | 6.51 | 5.73 | 6.32 | 6.8 | 6.26 | 5.56 | 6.9 | 6.28 | 6.24 | 6.52 | 7.78
Oc1cc(-c2nc(-c3ccccc3)[nH]c2-c2ccncc2)ccc1Cl | 4.79 | 5.07 | < 4.48 | 4.87 | 4.76 | 4.77 | 5.09 | 4.97 | 4.78 | 4.51 | < 4.48 | < 4.48 | 4.79 | 4.59 | < 4.48 | < 4.48 | 4.97 | 4.39 | < 4.48 | 5.06
C=CCNC1=C2C[C@@H](C)C[C@H](OC)[C@H](O)[C@@H](C)/C=C(\C)[C@H](OC(N)=O)[C@@H](OC)/C=C\C=C(/C)C(=O)NC(=CC1=O)C2=O [17-AAG] | 7.41 | 6.65 | 7.5 | 6.11 | 7.29 | 7.24 | 7.39 | 7.48 | 7.46 | 7.27 | 7.51 | 7.24 | 5.84 | 7.45 | 6.25 | 6.93 | 8.39 | 6.86 | 7.36 | 7.93
O=c1[nH]c2ccccc2n1C1CCN(Cc2ccc(-c3[nH]c4cc5ncnc5cc4nc3-c3ccccc3)cc2)CC1 [Akt inhibitor VIII] | 6.03 | 5.15 | 5.08 | 4.82 | 6.06 | 4.9 | 5.75 | 5.01 | 5.12 | 5.93 | 5.08 | 5.61 | 6.08 | 5.7 | 5.77 | 5.86 | 5.35 | 4.87 | 5.73 | 5.58
Cn1c(=O)n(-c2ccc(C(C)(C)C#N)cc2)c2c3cc(-c4cnc5ccccc5c4)ccc3ncc21 [BEZ235] | 7.2 | < 4.48 | 7.28 | < 4.48 | 6.68 | < 4.48 | 6.46 | 6.33 | 7.44 | 6.85 | < 4.48 | 6.59 | 6.65 | 6.79 | < 4.48 | 7.24 | 5.51 | < 4.48 | 6.92 | 7.19
CC(C)C[C@H](NC(=O)[C@H](Cc1ccccc1)NC(=O)c1cnccn1)B(O)O [Bortezomib] | 8.86 | 6.85 | 8.13 | 7.66 | 5.54 | 7.98 | 8.3 | 7.39 | 8.14 | 7.53 | 8.21 | 8.32 | 8.24 | 7.4 | 7.75 | 8.35 | 7.28 | 8.12 | 8.07 | 8.18
CCc1c2c(nc3ccc(OC(=O)N4CCC(N5CCCCC5)CC4)cc13)-c1cc3c(c(=O)n1C2)COC(=O)[C@]3(O)CC [CPT-11] | 4.62 | 4.71 | 4.72 | 5.06 | 5.25 | 6.14 | 4.17 | 5.79 | 5.37 | 5.82 | 5.47 | 5.83 | 4.69 | 4.94 | 4.64 | 5.5 | 4.64 | 4.88 | 5.19 | 5.44
O=C(O)C1(C(=O)O)CCC1.[NH2-].[NH2-].[Pt+2] [Carboplatin] | 4.02 | 3.82 | 4.42 | 4.09 | 4.34 | 4.76 | 4.44 | 4.05 | 4.55 | 3.52 | 4.61 | 4.95 | 3.97 | 3.79 | 3.64 | 4.88 | 3.86 | 3.88 | 4.27 | 4.9
N.N.[Cl][Pt][Cl] [Cisplatin] | 4.91 | 4.33 | 5.29 | 4.65 | 5.06 | 5.78 | 5.37 | 4.18 | 5.4 | 4.06 | 5.6 | 5.72 | 4.42 | 3.84 | 4.66 | 5.71 | 4.33 | 5.04 | 5.16 | 5.53
CC(=O)O[C@@]12CO[C@@H]1C[C@H](O)[C@@]1(C)C(=O)[C@H](O)C3=C(C)[C@@H](OC(=O)[C@H](O)[C@@H](NC(=O)OC(C)(C)C)c4ccccc4)C[C@@](O)([C@@H](OC(=O)c4ccccc4)[C@H]21)C3(C)C [Docetaxel] | 7.8 | 7.61 | 8.78 | 8.66 | 7.92 | 8.69 | 7.8 | 8.59 | 8.77 | 8.03 | 8.46 | 8.3 | 8.2 | 8.48 | 7.91 | 8.52 | 7.77 | 8.06 | 8.32 | 6.13
COc1cccc2c1C(=O)c1c(O)c3c(c(O)c1C2=O)C[C@@](O)(C(=O)CO)C[C@@H]3O[C@H]1C[C@H](N)[C@H](O)[C@H](C)O1 [Doxorubicin] | 6.33 | 6.69 | 6.74 | 6.44 | 6.63 | 7.14 | 6.48 | 7.34 | 6.77 | 6.67 | 6.94 | 7.03 | 6.51 | 6.52 | 6.11 | 7.29 | 5.92 | 6.6 | 6.67 | 6.95
C#Cc1cccc(Nc2ncnc3cc(OCCOC)c(OCCOC)cc23)c1 [Erlotinib] | 5.2 | 4.3 | 5.55 | 4.33 | < 4.18 | < 4.18 | 5.52 | 6.27 | 4.93 | < 4.18 | 4.39 | 4.93 | 4.98 | < 4.18 | < 4.18 | 4.71 | 4.75 | 4.24 | 4.77 | 6.64
